Assays:
Pharbitis purpurea = test: Post-emergence herbicidal activity, PHBPU; assay type: in vivo, Pharbitis/Ipomoea purpurea; conditions: dosage rate 80 g/ha, scored visually after approx. 3 weeks vs untreated controls
Experimental: (§1) Seeds of monocotyledonous or dicotyledonous weed plants or crop plants are placed in sandy loam in wood fiber pots, covered with soil and grown in the greenhouse under good growth conditions. 2 to 3 weeks after sowing, the test plants are treated in the one-leaf stage. The compounds according to the invention, which are formulated as wettable powders (WP), are then sprayed onto the green plant parts in the form of an aqueous suspension or emulsion with a water application rate of 600 I/ha (converted) with addition of 0.2% of wetter. After the test plants have been left to stand in the greenhouse for approximately 3 weeks under optimal growth conditions, the activity of the preparation is scored visually in comparison with untreated controls (herbicidal activity in percent (%): 100% activity=plants have died, 0% activity=like control plants).

Alopecurus myosuroides [1] = test: Pre-emergence herbicidal activity, ALOMY; assay type: in vivo; conditions: 80 g/ha, WP formulation, scored visually after approximately 3 weeks vs untreated controls (100% = plants have died)
From the text: (§2) Seeds of monocotyledonous or dicotyledonous weed plants or crop plants are placed in sandy loam in wood fiber pots and covered with soil. The compounds according to the invention, which are formulated as wettable powders (WP) are then applied to the surface of the soil cover in the form of an aqueous suspension or emulsion with a water application rate of 600 I/ha (converted), with addition of 0.2% wetter. After the treatment, the pots are placed in the greenhouse and maintained under good growth conditions for the test plants. After approximately 3 weeks, the activity of the preparation is scored visually in comparison with untreated controls (herbicidal activity in percent (%): 100% activity=plants have died, 0% activity=like control plants).

Lolium multiflorum = test: Post-emergence herbicidal activity, LOLMU; assay type: in vivo; conditions: dosage rate 80 g/ha, scored visually after approx. 3 weeks vs untreated controls
Experimental: as §1

Abutilon theophrasti = test: Post-emergence herbicidal activity, ABUTH; assay type: in vivo; conditions: dosage rate 80 g/ha, scored visually after approx. 3 weeks vs untreated controls
Experimental: as §1

Echinochloa crus-galli = test: Post-emergence herbicidal activity, ECHCG; assay type: in vivo; conditions: dosage rate 80 g/ha, scored visually after approx. 3 weeks vs untreated controls
Experimental: as §1

Amaranthus retroflexus = test: Post-emergence herbicidal activity, AMARE; assay type: in vivo; conditions: dosage rate 80 g/ha, scored visually after approx. 3 weeks vs untreated controls
Experimental: as §1

Viola tricolor = test: Post-emergence herbicidal activity, VIOTR; assay type: in vivo; conditions: dosage rate 80 g/ha, scored visually after approx. 3 weeks vs untreated controls
Experimental: as §1

Stellaria media [2] = test: Pre-emergence herbicidal activity, STEME; assay type: in vivo; conditions: 80 g/ha, WP formulation, scored visually after approximately 3 weeks vs untreated controls (100% = plants have died)
From the text: as §2

Stellaria media [3] = test: Post-emergence herbicidal activity, STEME; assay type: in vivo; conditions: dosage rate 80 g/ha, scored visually after approx. 3 weeks vs untreated controls
Experimental: as §1

Matricaria inodora = test: Pre-emergence herbicidal activity, MATIN; assay type: in vivo; conditions: 80 g/ha, WP formulation, scored visually after approximately 3 weeks vs untreated controls (100% = plants have died)
From the text: as §2

Alopecurus myosuroides [4] = test: Post-emergence herbicidal activity, ALOMY; assay type: in vivo; conditions: dosage rate 80 g/ha, scored visually after approx. 3 weeks vs untreated controls
Experimental: as §1

logp = assay type: physicochemical

Compound	herbicidal activity PHBPU (Pharbitis purpurea) [%]	herbicidal activity in percent, ALOMY (Alopecurus myosuroides [1]) [%]	herbicidal activity LOLMU (Lolium multiflorum) [%]	herbicidal activity ABUTH (Abutilon theophrasti) [%]	herbicidal activity ECHCG (Echinochloa crus-galli) [%]	herbicidal activity AMARE (Amaranthus retroflexus) [%]	herbicidal activity VIOTR (Viola tricolor) [%]	herbicidal activity in percent, STEME (Stellaria media [2]) [%]	herbicidal activity STEME (Stellaria media [3]) [%]	herbicidal activity in percent, MATIN (Matricaria inodora) [%]	herbicidal activity ALOMY (Alopecurus myosuroides [4]) [%]	logP (logp)	melting point [°C]
COc1cc(Cl)nc(NC(=O)NS(=O)(=O)c2ncccc2C2=NOCC2)n1 [Ia-1, N-[(4-Chloro-6-methoxypyrimidin-2-yl)carbamoyl]-3-(4,5-dihydroisoxazol-3-yl)-pyridine-2-sulfonamide]	100	90	90	90	100	90	80	90	90	90	80		
COc1cc(OC)nc(NC(=O)NS(=O)(=O)c2ncccc2C2=NOCC2)n1 [Ia-2]	90	90	90	100	100	90	90	90	90	90	80		
Cc1cc(C)nc(NC(=O)NS(=O)(=O)c2ncccc2C2=NOCC2)n1 [Ia-3]	90	80	80	90	90	100	80	80	90	80	80		
COc1cc(SC)nc(NC(=O)NS(=O)(=O)c2ncccc2C2=NOCC2)n1 [Ia-4]	100	80		80	90	100	80	90	90	90	80		
COc1nc(NC(=O)NS(=O)(=O)c2ncccc2C2=NOCC2)nc(OC)n1 [Ia-6]			90			80							
COc1nc(C)nc(NC(=O)NS(=O)(=O)c2ncccc2C2=NOCC2)n1 [Ia-7]			90	80							80		
CN(C)c1nc(NC(=O)NS(=O)(=O)c2ncccc2C2=NOCC2)nc(OCC(F)(F)F)n1 [Ia-8]			90	80	80								
COc1cc(C)nc(NC(=O)NS(=O)(=O)c2ncccc2C2=NOCC2)n1 [Ia-9]	90		90	80				80	90		80		
COc1cc(OC)nc(NC(=O)NS(=O)(=O)c2ncccc2C2=NOC(C(C)C)C2)n1 (centres unmarked) [Ia-10]	80	80	90	90	100	100	90	80	90	80	90		
COc1cc(OC)nc(NC(=O)NS(=O)(=O)c2ncccc2C2=NOC(C)C2)n1 (centres unmarked) [Ia-11]	90	90	100	90	100	100	90	80	100	80	90		
COc1cc(OC)nc(NC(=O)NS(=O)(=O)c2ncccc2C2=NOC(C)(C)C2)n1 [Ia-13]	90	90	90	90	90	90	90	80	100	80	90		
COc1cc(Cl)nc(NC(=O)NS(=O)(=O)c2ncccc2C2=NOC(C)(C)C2)n1 [Ia-14]					80	90	90		80				
COc1cc(C)nc(NC(=O)NS(=O)(=O)c2ncccc2C2=NOC(C)C2)n1 (centres unmarked) [Ia-15]		80	80		80	90	80		80	80	90		
COc1cc(Cl)nc(NC(=O)NS(=O)(=O)c2ncccc2C2=NOC(C)C2)n1 (centres unmarked) [Ia-16]		80	90		80	90	80		100	80	80		
CCCC1CC(c2cccnc2S(=O)(=O)NC(=O)Nc2nc(C)cc(OC)n2)=NO1 (centres unmarked) [Ia-17]		90	80			80					80		
CCC1CC(c2cccnc2S(=O)(=O)NC(=O)Nc2nc(C)nc(OC)n2)=NO1 (centres unmarked) [Ia-18]					80								
CCC1CC(c2cccnc2S(=O)(=O)NC(=O)Nc2nc(C)cc(OC)n2)=NO1 (centres unmarked) [Ia-19]	80	80	80		80	80	80	80	80		90		
CCC1CC(c2cccnc2S(=O)(=O)NC(=O)Nc2nc(Cl)cc(OC)n2)=NO1 (centres unmarked) [Ia-20]		80	80		80	80	80		80		80		
CCCC1CC(c2cccnc2S(=O)(=O)NC(=O)Nc2nc(OC)cc(OC)n2)=NO1 (centres unmarked) [Ia-21]	80		80	80	80	80	80	80	80	80	80		
COc1cc(C)nc(NC(=O)NS(=O)(=O)c2ncccc2C2=NOC(C(C)C)C2)n1 (centres unmarked) [Ia-22]	80		80	80			80	100			80		
CCCC1CC(c2cccnc2S(=O)(=O)NC(=O)Nc2nc(C)nc(OC)n2)=NO1 (centres unmarked) [Ia-23]										80			
CCC1CC(c2cccnc2S(=O)(=O)NC(=O)Nc2nc(OC)cc(OC)n2)=NO1 (centres unmarked) [Ia-24]	90	90		80	100	80		90	90	90			
Clc1ncccc1C1=NOCC1 [XIa-1, 2-Chloro-3-(4,5-dihydroisoxazol-3-yl)pyridine]												0.97	183 to 185

Reference: patent publication US20110028318A1, “HERBICIDAL COMPOUNDS BASED ON N-AZINYL-N'-PYRIDYLSULPHONYLUREAS” (Bayer CropScience AG, priority 2007, published 2011)
